{"source": "paper PMC11443511", "about": "“Discovery of anti-infective compounds against Mycobacterium marinum after biotransformation of simple natural stilbenes by a fungal secretome” (Frontiers in Microbiology, 2024)", "key": {"[1]": {"system": "Mycobacterium marinum (Mm) in infection of Dictyostelium discoideum (Mm-inf)", "assay": "Anti-infective assay, growth of Mm during infection of Dd (Mm-inf, luminescence)", "assay_type": "cell-based", "conditions": "for IC50: 72 h; for pro-infective effect on Mm-inf (in words): between 0.4 and 3.3 μM"}, "[2]": {"system": "Dictyostelium discoideum (Dd-inf)", "assay": "microbe, parasite or virus in culture", "assay_type": "cell-based", "conditions": "for lowest measured value of Dd-inf (normalized residual growth) / activity on Dd growth, Dd-inf (in words): dose-response curve"}, "Dd Ax2(ka) cells": {"system": "Dd Ax2(ka) cells", "assay": "Anti-infective assay with high-content microscopy, area of uninfected and infected Dd", "conditions": "20, 10, 2.5 μM, up to 48 h", "procedure": "(§1) To monitor both the host and pathogen during the course of infection in a quantitative manner, Dd Ax2(ka) cells expressing mCherry knocked-in at the act5 locus ([Paschke et al., 2019]) were infected as described above with Mm WT stably expressing GFP (Msp:12-GFP). As described above, the day before the experiment, 10^7 amoebae were plated in a 10 cm Petri dish. On the day of the experiment, infection was performed, as described above, in HL5-C at MOI 25 by spinoculation. This was followed by eight washes in HL5-C to clear a maximum of non-internalized bacteria. The infected amoebae were detached mechanically and resuspended in HL5-C with 0.75 U/mL penicillin and 0.75 μg/mL of streptomycin (Gibco). Compounds were diluted in HL5-C to a 10x stock of the final assay concentration and pre-plated in 20 μL into the respective wells of a 96-well μ-plate (iBIDI 96-well μ-plate, 89,626). Subsequently, 7,500 cells per well were added in a volume of 180 μL. Every condition has been plated in at least three technical replicates and at least three biological replicates. The 96-well plate was sealed with a gas permeable seal (4titude, 4ti-0516/96) and centrifuged briefly.\n(§2) Microscopy images were acquired at 25°C with a 40X plan Apo objective at selected time points over 48 h on the ImageXpress Micro C® automated microscope (Molecular Devices) in wide field mode. Focus was obtained automatically by autofocusing on the well bottom and plate bottom, at every well and every time point. In a grid of 4 × 5, 20 images per well, corresponding to a range of 500–6,000 cells, have been taken using the Texas-Red channel for Dd expressing mCherry and FITC channel for Mm expressing GFP in each experiment. Image analysis was performed using MetaXpress Custom Module editor software. Objects were effectively segmented by size and intensity. More precisely, amoebae were segmented using a “find blob module” using the Texas-Red channel. To segment the bacteria, the FITC image was first subjected to a light deconvolution with a top hat filter and then segmented using a “find blob module.” Intracellular bacteria and infected amoebae were determined by associating the mask of the amoebae and the bacteria. Several parameters such as intracellular and extracellular bacterial area sum, amoebae area sum, averaged and integrated fluorescence intensity and feature counts of bacteria and amoeba were extracted. The growth curves for the area sum of uninfected amoebae, infected amoebae and intracellular bacteria of independent biological replicates were averaged and plotted using GraphPad Prism (Version 8.0.1).\n(§3) Both uninfected Dd and Dd infected with Mm were treated with 20, 10 or 2.5 μM of 17 or 19 and the infection was monitored by collecting microscopy images at five time points for up to 48 h."}, "intracellular Mm": {"system": "intracellular Mm", "assay": "Anti-infective assay with high-content microscopy, area of intracellular Mm", "conditions": "20, 10, 2.5 μM, up to 48 h", "procedure": "as §1, §2, §3"}, "Mm": {"system": "Mm", "conditions": "MIC90 from clinical isolates, cited from earlier work"}, "[3]": {"system": "Mycobacterium marinum in broth (Mm-broth)", "assay": "Antibacterial assay, growth of Mm in broth (Mm-broth, luminescence)", "assay_type": "cell-based", "conditions": "for IC50 / MIC: Mycobacterium marinum; for IC50: read-out: IC50 Mm-broth; for activity on Mm-broth (in words): at respective maximal tested concentration"}, "[4]": {"conditions": "AUC of luminescence normalized to vehicle, 4PL regression, read-out: IC50 Mm-inf"}, "[5]": {"conditions": "read-out: IC50 Mm-inf, 72 h, AUC of luminescence normalized to vehicle, 4PL regression"}, "[6]": {"conditions": "at respective maximal tested concentration"}, "[7]": {"conditions": "converted from μM, read-out: MIC in infection"}, "[8]": {"conditions": "lowest concentration with normalized residual growth plus one SD ≤0, 72 h, read-out: MIC Mm-inf"}, "[9]": {"conditions": "ref Woods and Clinical and Laboratory Standards Institute, 2011"}, "[10]": {"conditions": "72 h, 7H9 broth, 32°C, read-out: MIC Mm-broth"}}, "note": "Entries after “also recorded” stand apart in the source; their conditions may differ. Read-outs that look alike come from different tables or passages of the source."}
{"smiles": "COc1ccc([C@H]2Oc3ccc(/C=C/c4cc(O)cc(O)c4)cc3[C@@H]2c2cc(O)cc(OC)c2)cc1", "note": "[compound 62]", "values": [{"measurement": "IC50", "setting": "[1]; [4]", "value": 13.4, "unit": "µM"}, {"measurement": "lowest measured value of Dd-inf (normalized residual growth)", "setting": "[2]", "value": 0.42}]}
{"smiles": "COc1ccc([C@H]2Oc3ccc(/C=C/c4cc(O)cc(OC)c4)cc3[C@@H]2c2cc(O)cc(O)c2)cc1", "note": "[compound 63]", "values": [{"measurement": "IC50", "setting": "[1]; [4]", "value": 8.6, "unit": "µM"}, {"measurement": "growth of uninfected Dd (segmented area, in words)", "setting": "Dd Ax2(ka) cells", "value": "only a slight growth inhibition at 20 μM"}, {"measurement": "lowest measured value of Dd-inf (normalized residual growth)", "setting": "[2]", "value": 0.8}, {"measurement": "growth of intracellular Mm (segmented area, in words)", "setting": "intracellular Mm", "value": "infection was well controlled"}]}
{"smiles": "COc1cc(O)cc(/C=C/c2ccc3c(c2)[C@H](c2cc(O)cc(OC)c2)[C@@H](c2ccc(O)cc2)O3)c1", "note": "[compound 64]", "values": [{"measurement": "IC50", "setting": "[1]; [4]", "value": 8, "unit": "µM"}, {"measurement": "growth of uninfected Dd (segmented area, in words)", "setting": "Dd Ax2(ka) cells", "value": "only a slight growth inhibition at 20 μM"}, {"measurement": "lowest measured value of Dd-inf (normalized residual growth)", "setting": "[2]", "value": 0.62}, {"measurement": "growth of intracellular Mm (segmented area, in words)", "setting": "intracellular Mm", "value": "infection was well controlled"}]}
{"smiles": "COc1cc([C@H]2Oc3c(OC)cc(/C=C/c4cc(O)cc(O)c4)cc3[C@@H]2c2cc(O)cc(O)c2)ccc1O", "note": "[compound 65]", "values": [{"measurement": "activity on Mm-inf (in words)", "setting": "[1]; at 20 μM", "value": "pro-infective activity"}]}
{"smiles": "Oc1ccc(-c2oc3ccc(/C=C/c4cc(O)cc(O)c4)cc3c2-c2cc(O)cc(O)c2)cc1", "note": "[compound 66]", "values": [{"measurement": "IC50", "setting": "[1]; [5]", "value": 29.7, "unit": "µM"}, {"measurement": "activity at 20 µM", "setting": "[1]; read-out: normalized residual growth of Mm-inf, 20 μM, vehicle = 1, baseline = 0, hit cut-off <0.5", "value": 55, "unit": "%"}, {"measurement": "IC50", "setting": "[2]; Dictyostelium discoideum, 72 h, read-out: IC50 Dd-inf (Dd growth)", "value": 26.2, "unit": "µM"}]}
{"smiles": "COc1cc(OC)cc(-c2c(-c3ccc(O)cc3)oc3ccc(/C=C/c4cc(O)cc(O)c4)cc23)c1", "note": "[compound 67]", "values": [{"measurement": "IC50", "setting": "[1]; [5]", "value": 19.6, "unit": "µM"}]}
{"smiles": "COc1cc(/C=C/c2ccc3oc(-c4ccc(O)cc4)c(-c4cc(O)cc(O)c4)c3c2)cc(OC)c1", "note": "[compound 68]", "values": [{"measurement": "IC50", "setting": "[1]; [5]", "value": 20.1, "unit": "µM"}]}
{"smiles": "COc1cc(/C=C/c2ccc3oc(-c4ccc(O)cc4)c(-c4cc(OC)cc(OC)c4)c3c2)cc(OC)c1", "note": "[compound 69]", "values": [{"measurement": "activity on Mm-inf (in words)", "setting": "[1]; dose-response curve", "value": "remained inactive"}]}
{"smiles": "CC[C@@H](CO)NCCN[C@@H](CC)CO", "note": "[ethambutol, reference compound]", "values": [{"measurement": "IC50", "setting": "[1]; [5]", "value": 7, "unit": "µM"}, {"measurement": "activity on Mm-inf (in words)", "setting": "[1]; [6]", "value": "sterilizing activity"}, {"measurement": "MIC", "setting": "[1]; [7]", "value": 6.1, "unit": "µg/mL"}, {"measurement": "MIC", "setting": "[1]; [8]", "value": 30, "unit": "µM"}, {"measurement": "breakpoint of antibacterial susceptibility for Mm", "setting": "Mm; [9]", "value": 4, "unit": "µg/mL"}, {"measurement": "IC50", "setting": "[3]; 72 h", "value": 1, "unit": "µM"}, {"measurement": "MIC", "setting": "[3]; [10]", "value": 3.3, "unit": "µM"}, {"measurement": "activity on Mm-broth (in words)", "setting": "[3]", "value": "sterilizing activity"}]}
{"smiles": "CCc1cc(C(N)=S)ccn1", "note": "[ethionamide]", "values": [{"measurement": "IC50", "setting": "[1]; [5]", "value": 4, "unit": "µM"}, {"measurement": "activity on Mm-inf (in words)", "setting": "[1]; [6]", "value": "sterilizing activity"}, {"measurement": "breakpoint of antibacterial susceptibility for Mm", "setting": "Mm; ref Lorian, 2005", "value": 5, "unit": "µg/mL"}, {"measurement": "IC50", "setting": "[3]; 72 h", "value": 0.8, "unit": "µM"}, {"measurement": "MIC", "setting": "[3]; 72 h, read-out: MIC Mm-broth", "value": 3.3, "unit": "µM"}, {"measurement": "activity on Mm-broth (in words)", "setting": "[3]", "value": "sterilizing activity"}]}
{"smiles": "NNC(=O)c1ccncc1", "note": "[isoniazid, reference compound]", "values": [{"measurement": "IC50", "setting": "[1]; [5]", "value": 11, "unit": "µM"}, {"measurement": "activity on Mm-inf (in words)", "setting": "[1]; [6]", "value": "sterilizing activity"}, {"measurement": "pro-infective effect on Mm-inf (in words)", "setting": "[1]", "value": "slight pro-infective effect"}, {"measurement": "MIC", "setting": "[1]; [7]", "value": 4.1, "unit": "µg/mL"}, {"measurement": "MIC", "setting": "[1]; [8]", "value": 30, "unit": "µM"}, {"measurement": "IC50", "setting": "[3]; 72 h", "value": 10, "unit": "µM"}, {"measurement": "MIC", "setting": "[3]; [10]", "value": 30, "unit": "µM"}, {"measurement": "MIC", "setting": "[3]; converted from μM, read-out: MIC in broth", "value": 4.1, "unit": "µg/mL"}, {"measurement": "activity on Mm-broth (in words)", "setting": "[3]", "value": "sterilizing activity"}]}
{"smiles": "NC(=O)c1cnccn1", "note": "[pyrazinamide, reference compound]", "values": [{"measurement": "pro-infective effect on Mm-inf (in words)", "setting": "[1]", "value": "slight pro-infective effect"}, {"measurement": "activity on Mm-inf (in words)", "setting": "[1]; dose-response curve", "value": "lack of activity; also recorded: no activity against Mm"}, {"measurement": "activity on Mm in broth (in words)", "setting": "[3]; screen at 20 μM or dose-response curve", "value": "no activity against Mm"}]}
{"smiles": "CO[C@H]1/C=C/O[C@@]2(C)Oc3c(C)c(O)c4c(c3C2=O)C2=NC3(CCN(CC(C)C)CC3)NC2=C(NC(=O)/C(C)=C\\C=C\\[C@H](C)[C@H](O)[C@@H](C)[C@@H](O)[C@@H](C)[C@H](OC(C)=O)[C@@H]1C)C4=O", "note": "[rifabutin]", "values": [{"measurement": "IC50", "setting": "[1]; [5]", "value": 0.2, "unit": "µM"}, {"measurement": "activity on Mm-inf (in words)", "setting": "[1]; [6]", "value": "sterilizing activity"}, {"measurement": "activity on Dd growth, Dd-inf (in words)", "setting": "[2]", "value": "affected amoebae growth slightly at the highest tested concentrations"}, {"measurement": "breakpoint of antibacterial susceptibility for Mm", "setting": "Mm; [9]", "value": 2, "unit": "µg/mL"}, {"measurement": "IC50", "setting": "[3]; 72 h", "value": 0.03, "unit": "µM"}, {"measurement": "MIC", "setting": "[3]; 72 h, read-out: MIC Mm-broth", "value": 0.01, "unit": "µM"}, {"measurement": "activity on Mm-broth (in words)", "setting": "[3]", "value": "sterilizing activity"}]}
{"smiles": "CO[C@H]1/C=C/O[C@@]2(C)Oc3c(C)c(O)c4c(O)c(c(/C=N/N5CCN(C)CC5)c(O)c4c3C2=O)NC(=O)/C(C)=C\\C=C\\[C@H](C)[C@H](O)[C@@H](C)[C@@H](O)[C@@H](C)[C@H](OC(C)=O)[C@@H]1C", "note": "[rifampicin, reference compound]", "values": [{"measurement": "IC50", "setting": "[1]; [5]", "value": 5, "unit": "µM"}, {"measurement": "activity on Mm-inf (in words)", "setting": "[1]; [6]", "value": "sterilizing activity"}, {"measurement": "MIC", "setting": "[1]; [8]", "value": 10, "unit": "µM"}, {"measurement": "activity on Dd growth, Dd-inf (in words)", "setting": "[2]", "value": "affected amoebae growth slightly at the highest tested concentrations"}, {"measurement": "IC50", "setting": "[3]; 72 h", "value": 0.1, "unit": "µM"}, {"measurement": "MIC", "setting": "[3]; [10]", "value": 1.1, "unit": "µM"}, {"measurement": "activity on Mm-broth (in words)", "setting": "[3]", "value": "sterilizing activity"}]}
